Results reported in US9695155B2, “Herbicidal substituted pyrimidinyloxy benzene compounds” (E. I. DU PONT DE NEMOURS AND COMPANY, priority 2013, dated 2017).

Tests used:
giant foxtail = assay: Test C postemergence; type: in vivo, Setaria faberii; settings: Setaria faberi, post-emergence
Procedure, shortened: (§1)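 Visual injury score versus untreated controls, 0 = no effect, 100 = complete control, taken 13 to 15 days after treatment in the greenhouse. Pre-emergence pots held loam/sand; post-emergence plants grew in sphagnum peat/vermiculite mix and were sprayed at the 1- to 4-leaf stage.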

large (Lg) crabgrass = assay: Test A preemergence; type: in vivo, Digitaria sanguinalis
Procedure, shortened: (§2)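 Compounds in non-phytotoxic solvent with surfactant applied as soil spray preemergence, or postemergence to plants 2-10 cm at one- to two-leaf stage, in loam/sand. After approximately 10 days in greenhouse, injury rated visually versus untreated controls, 0 (no effect) to 100 (complete control).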

pigweed [1] = assay: Test A preemergence; type: in vivo, Amaranthus retroflexus
Procedure, shortened: as §2

Italian ryegrass = assay: Test C preemergence; type: in vivo, Lolium multiflorum; settings: Lolium multiflorum, pre-emergence
Procedure, shortened: as §1

wild oat = assay: Test C postemergence; type: in vivo, Avena fatua
Procedure, shortened: as §1

pigweed [2] = assay: Test C preemergence; type: in vivo, Amaranthus retroflexus; settings: Amaranthus retroflexus, pre-emergence
Procedure, shortened: as §1

barnyardgrass = assay: Test C postemergence; type: in vivo, Echinochloa crus-galli; settings: Echinochloa crus-galli, post-emergence
Procedure, shortened: as §1

morningglory = assay: Test C preemergence; type: in vivo, Ipomoea coccinea; settings: Ipomoea, pre-emergence
Procedure, shortened: as §1

yellow nutsedge [3] = assay: Test C preemergence; type: in vivo, Cyperus esculentus; settings: Cyperus, pre-emergence
Procedure, shortened: as §1

ragweed = assay: Test C preemergence; type: in vivo, Ambrosia elatior; settings: Ambrosia artemisiifolia, pre-emergence
Procedure, shortened: as §1

yellow nutsedge [4] = assay: Test C postemergence; type: in vivo, Cyperus esculentus
Procedure, shortened: as §1

wheat, winter = assay: Test C postemergence; type: in vivo, Triticum aestivum
Procedure, shortened: as §1

blackgrass [5] = assay: Test C preemergence; type: in vivo, Alopecurus myosuroides; settings: Alopecurus myosuroides, pre-emergence
Procedure, shortened: as §1

chickweed = assay: Test C postemergence; type: in vivo, Stellaria media; settings: Stellaria media, post-emergence
Procedure, shortened: as §1

blackgrass [6] = assay: Test C postemergence; type: in vivo, Alopecurus myosuroides; settings: Alopecurus myosuroides, post-emergence
Procedure, shortened: as §1

corn = assay: Test C postemergence; type: in vivo, Zea mays; settings: Zea mays, post-emergence, postemergence
Procedure, shortened: as §1

soybean = assay: Test C preemergence; type: in vivo, Glycine max; settings: Glycine max, pre-emergence
Procedure, shortened: as §1

[7] = 31 g ai/ha, postemergence, visual rating, scale 0 to 100 (0 no effect, 100 complete control), 13 to 15 days

SMILES: FC(F)c1cccc(Oc2ncc(Cl)cn2)c1-n1cc(Br)cn1 [Compound 194, 2-[2-(4-bromo-1H-pyrazol-1-yl)-3-(difluoromethyl)phenoxy]-5-chloropyrimidine]
- pest or weed control at 31 g/ha (giant foxtail; 31 g ai/ha, postemergence, visual rating, scale 0 to 100 (0 no effect, 100 complete control), 13 to 15 days, read-out: Foxtail, Giant plant response rating): 10%
- pest or weed control at 125 g/ha (giant foxtail; 125 g ai/ha, postemergence, visual rating, scale 0 to 100 (0 no effect, 100 complete control), read-out: Plant response rating, Foxtail, Giant): 15%
- pest or weed control at 250 g/ha (giant foxtail; 250 g ai/ha, postemergence, read-out: Plant response rating (0 to 100), Foxtail, Giant): 15%
- pest or weed control at 62 g/ha (giant foxtail; Postemergence, 62 g ai/ha, scale 0 to 100 (0 no effect, 100 complete control), 13 to 15 days, read-out: Plant response rating, Foxtail, Giant): 10%
- Crabgrass, Large plant response rating (0 to 100 scale) (large (Lg) crabgrass; 125 g ai/ha): 100
- pest or weed control at 500 g/ha (large (Lg) crabgrass; Digitaria sanguinalis, pre-emergence, 240 h, 500 g ai/ha, 0 to 100 scale where 0 is no effect and 100 is complete control, read-out: Crabgrass, Large plant response rating): 100%
- Pigweed plant response rating (0 to 100 scale) (pigweed [1]; 125 g ai/ha): 100
- pest or weed control at 500 g/ha (pigweed [1]; Amaranthus retroflexus, pre-emergence, 240 h, 500 g ai/ha, 0 to 100 scale where 0 is no effect and 100 is complete control, read-out: Pigweed plant response rating): 100%
- pest or weed control at 125 g/ha (Italian ryegrass; 125 g ai/ha, preemergence, scale 0 (no effect) to 100 (complete control), read-out: Ryegrass, Italian plant response rating): 70%
- pest or weed control at 250 g/ha (Italian ryegrass; 250 g ai/ha, preemergence, scale 0 (no effect) to 100 (complete control), read-out: Ryegrass, Italian plant response rating): 90%
- pest or weed control at 62 g/ha (Italian ryegrass; Preemergence, 62 g ai/ha, scale 0 to 100, 0 no effect, 100 complete control, read-out: Plant response rating, Ryegrass, Italian): 20%
- Oat, Wild plant response rating (wild oat; [7]): 5
- pest or weed control at 125 g/ha (wild oat; Avena fatua, post-emergence, 125 g ai/ha, postemergence, visual rating, scale 0 to 100 (0 no effect, 100 complete control), read-out: Plant response rating, Oat, Wild): 40%
- pest or weed control at 250 g/ha (wild oat; Avena fatua, post-emergence, 250 g ai/ha, postemergence, read-out: Plant response rating (0 to 100), Oat, Wild): 45%
- pest or weed control at 62 g/ha (wild oat; Avena fatua, post-emergence, Postemergence, 62 g ai/ha, scale 0 to 100 (0 no effect, 100 complete control), 13 to 15 days, read-out: Plant response rating, Oat, Wild): 15%
- pest or weed control at 125 g/ha (pigweed [2]; 125 g ai/ha, preemergence, scale 0 (no effect) to 100 (complete control), read-out: Pigweed plant response rating): 100%
- pest or weed control at 250 g/ha (pigweed [2]; 250 g ai/ha, preemergence, scale 0 (no effect) to 100 (complete control), read-out: Pigweed plant response rating): 100%
- pest or weed control at 62 g/ha (pigweed [2]; Preemergence, 62 g ai/ha, scale 0 to 100, 0 no effect, 100 complete control, read-out: Plant response rating, Pigweed): 100%
- pest or weed control at 31 g/ha (barnyardgrass; 31 g ai/ha, postemergence, visual rating, scale 0 to 100 (0 no effect, 100 complete control), 13 to 15 days, read-out: Barnyardgrass plant response rating): 5%
- pest or weed control at 125 g/ha (barnyardgrass; 125 g ai/ha, postemergence, visual rating, scale 0 to 100 (0 no effect, 100 complete control), read-out: Plant response rating, Barnyardgrass): 15%
- pest or weed control at 250 g/ha (barnyardgrass; 250 g ai/ha, postemergence, read-out: Plant response rating (0 to 100), Barnyardgrass): 55%
- pest or weed control at 62 g/ha (barnyardgrass; Postemergence, 62 g ai/ha, scale 0 to 100 (0 no effect, 100 complete control), read-out: Plant response rating, Barnyardgrass): 5%
- pest or weed control at 125 g/ha (morningglory; 125 g ai/ha, preemergence, scale 0 (no effect) to 100 (complete control), read-out: Morningglory plant response rating): 95%
- pest or weed control at 250 g/ha (morningglory; 250 g ai/ha, preemergence, scale 0 (no effect) to 100 (complete control), read-out: Morningglory plant response rating): 98%
- pest or weed control at 62 g/ha (morningglory; Preemergence, 62 g ai/ha, scale 0 to 100, 0 no effect, 100 complete control, read-out: Plant response rating, Morningglory): 0%
- pest or weed control at 125 g/ha (yellow nutsedge [3]; 125 g ai/ha, preemergence, scale 0 (no effect) to 100 (complete control), read-out: Nutsedge, Yellow plant response rating): 0%
- pest or weed control at 250 g/ha (yellow nutsedge [3]; 250 g ai/ha, preemergence, scale 0 (no effect) to 100 (complete control), read-out: Nutsedge, Yellow plant response rating): 25%
- pest or weed control at 62 g/ha (yellow nutsedge [3]; Preemergence, 62 g ai/ha, scale 0 to 100, 0 no effect, 100 complete control, read-out: Plant response rating, Nutsedge, Yellow): 0%
- pest or weed control at 125 g/ha (ragweed; 125 g ai/ha, preemergence, scale 0 (no effect) to 100 (complete control), read-out: Ragweed plant response rating): 20%
- pest or weed control at 250 g/ha (ragweed; 250 g ai/ha, preemergence, scale 0 (no effect) to 100 (complete control), read-out: Ragweed plant response rating): 75%
- pest or weed control at 62 g/ha (ragweed; Preemergence, 62 g ai/ha, scale 0 to 100, 0 no effect, 100 complete control, read-out: Plant response rating, Ragweed): 10%
- Nutsedge, Yellow plant response rating (yellow nutsedge [4]; [7]): 5
- pest or weed control at 125 g/ha (yellow nutsedge [4]; Cyperus, post-emergence, 125 g ai/ha, postemergence, visual rating, scale 0 to 100 (0 no effect, 100 complete control), read-out: Plant response rating, Nutsedge, Yellow): 5%
- pest or weed control at 250 g/ha (yellow nutsedge [4]; Cyperus, post-emergence, 250 g ai/ha, postemergence, read-out: Plant response rating (0 to 100), Nutsedge, Yellow): 5%
- pest or weed control at 62 g/ha (yellow nutsedge [4]; Cyperus, post-emergence, Postemergence, 62 g ai/ha, scale 0 to 100 (0 no effect, 100 complete control), 13 to 15 days, read-out: Plant response rating, Nutsedge, Yellow): 5%
- Wheat plant response rating (wheat, winter; [7]): 0
- plant injury at 125 g/ha (wheat, winter; Triticum aestivum, post-emergence, 125 g ai/ha, postemergence, visual rating, scale 0 to 100 (0 no effect, 100 complete control), read-out: Plant response rating, Wheat): 0%
- plant injury at 250 g/ha (wheat, winter; Triticum aestivum, post-emergence, 250 g ai/ha, postemergence, read-out: Plant response rating (0 to 100), Wheat): 5%
- plant injury at 62 g/ha (wheat, winter; Triticum aestivum, post-emergence, Postemergence, 62 g ai/ha, scale 0 to 100 (0 no effect, 100 complete control), 13 to 15 days, read-out: Plant response rating, Wheat): 0%
- pest or weed control at 125 g/ha (blackgrass [5]; 125 g ai/ha, preemergence, scale 0 (no effect) to 100 (complete control), read-out: Blackgrass plant response rating): 90%
- pest or weed control at 250 g/ha (blackgrass [5]; 250 g ai/ha, preemergence, scale 0 (no effect) to 100 (complete control), read-out: Blackgrass plant response rating): 90%
- pest or weed control at 62 g/ha (blackgrass [5]; Preemergence, 62 g ai/ha, scale 0 to 100, 0 no effect, 100 complete control, read-out: Plant response rating, Blackgrass): 50%
- pest or weed control at 31 g/ha (chickweed; 31 g ai/ha, postemergence, visual rating, scale 0 to 100 (0 no effect, 100 complete control), 13 to 15 days, read-out: Chickweed plant response rating): 50%
- pest or weed control at 125 g/ha (chickweed; 125 g ai/ha, postemergence, visual rating, scale 0 to 100 (0 no effect, 100 complete control), read-out: Plant response rating, Chickweed): 70%
- pest or weed control at 250 g/ha (chickweed; 250 g ai/ha, postemergence, read-out: Plant response rating (0 to 100), Chickweed): 85%
- pest or weed control at 62 g/ha (chickweed; Postemergence, 62 g ai/ha, scale 0 to 100 (0 no effect, 100 complete control), 13 to 15 days, read-out: Plant response rating, Chickweed): 70%
- pest or weed control at 31 g/ha (blackgrass [6]; 31 g ai/ha, postemergence, visual rating, scale 0 to 100 (0 no effect, 100 complete control), 13 to 15 days, read-out: Blackgrass plant response rating): 15%
- pest or weed control at 125 g/ha (blackgrass [6]; 125 g ai/ha, postemergence, visual rating, scale 0 to 100 (0 no effect, 100 complete control), read-out: Plant response rating, Blackgrass): 30%
- pest or weed control at 250 g/ha (blackgrass [6]; 250 g ai/ha, postemergence, read-out: Plant response rating (0 to 100), Blackgrass): 35%
- pest or weed control at 62 g/ha (blackgrass [6]; Postemergence, 62 g ai/ha, scale 0 to 100 (0 no effect, 100 complete control), 13 to 15 days, read-out: Plant response rating, Blackgrass): 20%
- plant injury at 31 g/ha (corn; 31 g ai/ha, visual rating, scale 0 to 100 (0 no effect, 100 complete control), 13 to 15 days, read-out: Corn plant response rating): 5%
- Corn plant response rating (crop injury, 0 = no effect, 100 = complete kill) at 125 g/ha (corn; 125 g ai/ha, visual rating, scale 0 to 100 (0 no effect, 100 complete control)): 25%
- plant injury at 250 g/ha (corn; 250 g ai/ha, read-out: Plant response rating (0 to 100), Corn): 30%
- plant injury at 125 g/ha (soybean; 125 g ai/ha, preemergence, scale 0 (no effect) to 100 (complete control), read-out: Soybean plant response rating): 25%
- plant injury at 250 g/ha (soybean; 250 g ai/ha, preemergence, scale 0 (no effect) to 100 (complete control), read-out: Soybean plant response rating): 45%
- plant injury at 62 g/ha (soybean; Preemergence, 62 g ai/ha, scale 0 to 100, 0 no effect, 100 complete control, read-out: Plant response rating, Soybean): 20%
